Legend:
[1] = xn = mol fraction of the nth substance listed; conditions: 101 kPa, Liquid, Vibrating tube method
[2] = Liquid; for speed of sound: Sing-around technique in a fixed-path interferometer; for mass density: Vibrating tube method
[3] = refractive index (Na D-line) (dimensionless); conditions: 298.15 K; 101.33 kPa; Liquid; Standard Abbe refractometry

CCCCCCCCCCO [decan-1-ol] + CN(C)C=O
mass density [kg/m3], [1]
Conditions | x2 = 0 | x2 = 0.2361 | x2 = 0.4193 | x2 = 0.5688 | x2 = 0.6724 | x2 = 0.7496 | x2 = 0.8185 | x2 = 0.8748 | x2 = 0.923 | x2 = 0.9632
298.15 K | 826.562 | 838.6 | 851.13 | 864.685 | 876.794 | 887.827 | 899.61 | 910.986 | 922.298 | 933.094
303.15 K | 822.853 | 834.589 | 846.845 | 860.269 | 872.216 | 883.031 | 894.603 | 905.795 | 916.997 | 927.772
308.15 K | 819.427 | 830.903 | 843.033 | 856.394 | 868.282 | 879.008 | 890.399 | 901.448 | 912.559 | 923.333
313.15 K | 816.383 | 827.267 | 839.221 | 852.343 | 863.94 | 874.443 | 885.574 | 896.397 | 907.34 | 918.051

CN(C)C=O [dimethylformamide] + CCCCCCCCCO
[1], x1 = 1
Conditions | mass density [kg/m3]
298.15 K | 944.29
303.15 K | 939.047
308.15 K | 934.721
313.15 K | 929.478

CCCCCCCCCO [nonan-1-ol]
[2]
Conditions | mass density, 298.15 K [kg/m3] | mass density, 303.15 K [kg/m3] | mass density, 308.15 K [kg/m3] | mass density, 313.15 K [kg/m3] | speed of sound, 298.15 K [m/s]
101 kPa | – | 821.044 | 817.582 | 814.098 | –
101.33 kPa | 824.478 | – | – | – | 1365.5

Conditions | refractive index
[3] | 1.4319

CN(C)C=O [dimethylformamide] + CCCCCCCCCCO
[1], x1 = 1
Conditions | mass density [kg/m3]
298.15 K | 944.29
303.15 K | 939.047
308.15 K | 934.721
313.15 K | 929.478

CCCCCCCCO [octan-1-ol]
[2]
Conditions | mass density, 298.15 K [kg/m3] | mass density, 303.15 K [kg/m3] | mass density, 308.15 K [kg/m3] | mass density, 313.15 K [kg/m3] | speed of sound, 298.15 K [m/s]
101 kPa | – | 818.209 | 814.742 | 810.629 | –
101.33 kPa | 821.222 | – | – | – | 1347.8

Conditions | refractive index
[3] | 1.4273

CCCCCCCCCCO [decan-1-ol]
[2]
Conditions | mass density, 298.15 K [kg/m3] | mass density, 303.15 K [kg/m3] | mass density, 308.15 K [kg/m3] | mass density, 313.15 K [kg/m3] | speed of sound, 298.15 K [m/s]
101 kPa | – | 822.853 | 819.427 | 816.383 | –
101.33 kPa | 826.562 | – | – | – | 1380

Conditions | refractive index
[3] | 1.4348

CN(C)C=O [dimethylformamide] + CCCCCCCCO
[1], x1 = 1
Conditions | mass density [kg/m3]
298.15 K | 944.29
303.15 K | 939.047
308.15 K | 934.721
313.15 K | 929.478

CCCCCCCCCO [nonan-1-ol] + CN(C)C=O
mass density [kg/m3], [1]
Conditions | x2 = 0 | x2 = 0.2201 | x2 = 0.3969 | x2 = 0.5458 | x2 = 0.6515 | x2 = 0.7321 | x2 = 0.8042 | x2 = 0.8644 | x2 = 0.9168 | x2 = 0.9596
298.15 K | 824.478 | 836.826 | 849.646 | 863.512 | 875.893 | 887.234 | 899.18 | 910.842 | 922.441 | 933.098
303.15 K | 821.044 | 833.085 | 845.647 | 859.175 | 871.335 | 882.498 | 894.281 | 905.742 | 917.225 | 927.834
308.15 K | 817.582 | 829.399 | 841.793 | 855.283 | 867.284 | 878.301 | 889.932 | 901.314 | 912.742 | 923.379
313.15 K | 814.098 | 825.49 | 837.685 | 851.074 | 862.916 | 873.711 | 885.08 | 896.217 | 907.487 | 918.072

CN(C)C=O [dimethylformamide]
[2]
Conditions | mass density, 298.15 K [kg/m3] | mass density, 303.15 K [kg/m3] | mass density, 308.15 K [kg/m3] | mass density, 313.15 K [kg/m3] | speed of sound, 298.15 K [m/s]
101 kPa | – | 939.047 | 934.721 | 929.478 | –
101.33 kPa | 944.29 | – | – | – | 1457.7

Conditions | refractive index
[3] | 1.428

CCCCCCCCO [octan-1-ol] + CN(C)C=O
mass density [kg/m3], [1]
Conditions | x2 = 0 | x2 = 0.2198 | x2 = 0.3728 | x2 = 0.5208 | x2 = 0.6277 | x2 = 0.7118 | x2 = 0.7877 | x2 = 0.8519 | x2 = 0.9085 | x2 = 0.9556
298.15 K | 821.222 | 835.186 | 847.253 | 861.646 | 874.238 | 885.914 | 898.138 | 909.952 | 921.843 | 932.914
303.15 K | 818.209 | 831.811 | 843.584 | 857.568 | 869.964 | 881.458 | 893.435 | 905.109 | 916.796 | 927.592
308.15 K | 814.742 | 828.086 | 839.752 | 853.623 | 865.852 | 877.239 | 889.113 | 900.709 | 912.287 | 923.224
313.15 K | 810.629 | 823.708 | 835.263 | 849.056 | 861.125 | 872.405 | 884.137 | 895.506 | 907.01 | 917.847

From the NIST ThermoML archive (doi:10.1016/j.jct.2012.11.015)
